From ChEMBL document CHEMBL1201862, “PubChem BioAssay data set” (2004)
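Results reflect a 48-hour exposure of cells in 96-well plates to compound at five concentrations. At the GI50, growth is halved.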 Active and inactive are the calls of the source. No stated cut-off is given here; in the data, active = GI50 up to about 1.1 µM and inactive = higher.

What was measured:
Assay in all cases: NCI-60 cell line screen, 48 h
[1] = test system: SR
[2] = test system: SW-620
[3] = test system: OVCAR-4
[4] = test system: SN12C
[5] = test system: PC-3
[6] = test system: HCT-116
[7] = test system: MOLT-4
[8] = test system: 786-0
[9] = test system: SF-268
[10] = test system: A498
[11] = test system: EKVX
[12] = test system: HOP-92
[13] = test system: RPMI-8226
[14] = test system: M14
[15] = test system: HL-60
[16] = test system: LOX IMVI
[17] = test system: A549
[18] = test system: SNB-19
[19] = test system: TK-10
[20] = test system: MDA-N

With `O=C(/C=C/c1ccc(Oc2cc(C(=O)/C=C/c3ccc(O)cc3)c(O)cc2O)cc1)c1ccc(O)cc1O` [RHUSCHALCONE II] the GI50 [1] was 3.35 µM (inactive), the GI50 [2] was 4.82 µM (inactive) and the GI50 [3] was 4.98 µM (inactive). For the same compound, the GI50 [4] was 4.41 µM (inactive), the GI50 [5] was 5.27 µM (inactive) and the GI50 [6] was 2.25 µM (inactive). For the same compound, the GI50 [7] was 4.09 µM (inactive), the GI50 [8] was 3.59 µM (inactive) and the GI50 [9] was 4.83 µM (inactive). For the same compound, the GI50 [10] was 2.65 µM (inactive), the GI50 [11] was 13.2 µM (inactive) and the GI50 [12] was 16.5 µM (inactive). The GI50 [13] was 2.86 µM (inactive), the GI50 [14] was 10.3 µM (inactive) and the GI50 [15] was 4.14 µM (inactive). The GI50 [16] was 5.47 µM (inactive), the GI50 [17] was 15.5 µM (inactive) and the GI50 [18] was 6.89 µM (inactive). The GI50 [19] was 3.07 µM (inactive).

In the case of `CCOc1ccc(/C=N\N2C(=O)c3ccccc3C2=O)cc1`, the GI50 [1] is reported as > 100 µM (inactive), the GI50 [2] is reported as > 100 µM (inactive) and the GI50 [3] is reported as > 100 µM (inactive). For the same compound, the GI50 [4] was > 100 µM (inactive), the GI50 [6] was > 100 µM (inactive) and the GI50 [7] was > 100 µM (inactive). The GI50 [8] was > 100 µM (inactive), the GI50 [9] was > 100 µM (inactive) and the GI50 [10] was > 100 µM (inactive). The GI50 [11] was > 100 µM (inactive), the GI50 [12] was > 100 µM (inactive) and the GI50 [13] was > 100 µM (inactive). The GI50 [14] was > 100 µM (inactive), the GI50 [15] was > 100 µM (inactive) and the GI50 [16] was > 100 µM (inactive). The GI50 [17] was > 100 µM (inactive), the GI50 [18] was > 100 µM (inactive) and the GI50 [19] was > 100 µM (inactive).

`CCN1/C(=C/C(C)=C/c2sc3ccccc3[n+]2CC)Sc2ccccc21` was tested, and the GI50 [1] was 0.181 µM (active), the GI50 [2] was 0.122 µM (active) and the GI50 [3] was 0.361 µM (active). For the same compound, the GI50 [4] was 0.234 µM (active), the GI50 [6] was 0.0485 µM (active) and the GI50 [7] was 0.0637 µM (active). For the same compound, the GI50 [8] was 0.418 µM (active), the GI50 [9] was 0.447 µM (active) and the GI50 [10] was 0.381 µM (active). For the same compound, the GI50 [11] was 0.0885 µM (active), the GI50 [12] was < 0.01 µM (active) and the GI50 [13] was 0.0223 µM (active). For the same compound, the GI50 [14] was 0.212 µM (active), the GI50 [15] was 0.0405 µM (active) and the GI50 [16] was 0.135 µM (active). The GI50 [17] was 0.0843 µM (active), the GI50 [18] was 0.0214 µM (active) and the GI50 [19] was 0.324 µM (active).

In the case of `Cn1cc2ccccc2c1-c1nc(F)nc(Oc2ccc3c(c2)CC[C@@H]2C3CC[C@@]3(C)C2CC[C@@H]3O)n1` (some centres not stated), the GI50 [1] is reported as 3.36 µM (inactive), the GI50 [2] is reported as 7.35 µM (inactive) and the GI50 [3] is reported as 7.43 µM (inactive). The GI50 [4] was 7.87 µM (inactive), the GI50 [6] was 11.7 µM (inactive) and the GI50 [7] was 4.07 µM (inactive). For the same compound, the GI50 [8] was 8.91 µM (inactive), the GI50 [9] was 9.53 µM (inactive) and the GI50 [10] was 20.5 µM (inactive). The GI50 [11] was 15.6 µM (inactive), the GI50 [12] was 7.78 µM (inactive) and the GI50 [13] was 5.94 µM (inactive). For the same compound, the GI50 [14] was 8.71 µM (inactive), the GI50 [15] was 3.81 µM (inactive) and the GI50 [16] was 5.79 µM (inactive). The GI50 [17] was 24.8 µM (inactive), the GI50 [18] was 16.6 µM (inactive) and the GI50 [19] was 13.7 µM (inactive).

For `C[N+](C)(C)CC1CCCc2ccccc2C1=O` (configuration not stated), the GI50 [1] was 1.64 µM (inactive), the GI50 [2] was 2.04 µM (inactive) and the GI50 [3] was 6.92 µM (inactive). For the same compound, the GI50 [4] was 6.68 µM (inactive), the GI50 [5] was 16.8 µM (inactive) and the GI50 [6] was 1.87 µM (inactive). The GI50 [7] was 2.48 µM (inactive), the GI50 [8] was 2.44 µM (inactive) and the GI50 [9] was 22 µM (inactive). The GI50 [10] was 14 µM (inactive), the GI50 [11] was 6.46 µM (inactive) and the GI50 [12] was 13.2 µM (inactive). The GI50 [13] was 0.265 µM (active), the GI50 [14] was 4.52 µM (inactive) and the GI50 [15] was 1.89 µM (inactive). For the same compound, the GI50 [17] was 4.06 µM (inactive), the GI50 [18] was 29 µM (inactive) and the GI50 [19] was 21 µM (inactive).

`COc1ccc2c3c1OC1C(OC)(OC)CC4(C=C2)CN(C)CCC314` (configuration not stated) was tested, and the GI50 [2] was > 100 µM (inactive), the GI50 [3] was > 100 µM (inactive) and the GI50 [4] was > 100 µM (inactive). The GI50 [6] was > 100 µM (inactive), the GI50 [7] was > 100 µM (inactive) and the GI50 [8] was > 100 µM (inactive). For the same compound, the GI50 [9] was > 100 µM (inactive), the GI50 [10] was 28.6 µM (inactive) and the GI50 [11] was > 100 µM (inactive). For the same compound, the GI50 [13] was > 100 µM (inactive), the GI50 [15] was 20.3 µM (inactive) and the GI50 [20] was > 100 µM (inactive). For the same compound, the GI50 [16] was > 100 µM (inactive), the GI50 [17] was > 100 µM (inactive) and the GI50 [18] was > 100 µM (inactive). The GI50 [19] was > 100 µM (inactive).

With `O=C1NN=CN2C(=O)CCC12` (configuration not stated) the GI50 [1] was > 100 µM (inactive), the GI50 [2] was > 100 µM (inactive) and the GI50 [3] was > 100 µM (inactive). For the same compound, the GI50 [4] was > 100 µM (inactive), the GI50 [6] was > 100 µM (inactive) and the GI50 [7] was > 100 µM (inactive). The GI50 [8] was > 100 µM (inactive), the GI50 [9] was > 100 µM (inactive) and the GI50 [10] was > 100 µM (inactive). The GI50 [11] was > 100 µM (inactive), the GI50 [12] was > 100 µM (inactive) and the GI50 [13] was > 100 µM (inactive). For the same compound, the GI50 [14] was > 100 µM (inactive), the GI50 [15] was > 100 µM (inactive) and the GI50 [16] was > 100 µM (inactive). The GI50 [17] was > 100 µM (inactive), the GI50 [18] was > 100 µM (inactive) and the GI50 [19] was > 100 µM (inactive).

`CNC(=O)NS(=O)(=O)c1ccc(C)cc1.NS(=O)O` was tested, and the GI50 [2] was > 100 µM (inactive), the GI50 [3] was > 100 µM (inactive) and the GI50 [4] was > 100 µM (inactive). The GI50 [5] was > 100 µM (inactive), the GI50 [6] was > 100 µM (inactive) and the GI50 [7] was > 100 µM (inactive). For the same compound, the GI50 [8] was > 100 µM (inactive), the GI50 [9] was > 100 µM (inactive) and the GI50 [12] was > 100 µM (inactive). For the same compound, the GI50 [13] was > 100 µM (inactive), the GI50 [14] was > 100 µM (inactive) and the GI50 [15] was > 100 µM (inactive). The GI50 [20] was > 100 µM (inactive), the GI50 [16] was > 100 µM (inactive) and the GI50 [17] was > 100 µM (inactive). For the same compound, the GI50 [18] was > 100 µM (inactive) and the GI50 [19] was > 100 µM (inactive).
